The subject of one experiment is Erk1/2 phosphorylation. The experiment in a line: Erk1/2 Phosphorylation Assay (western blot), Panc-1. The class given is cell-based, human. The conditions noted are these: at 10 μM, * = activation. An outline of the steps:
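KRas G12D Panc-1 cells were treated 6 h at 37° C with compound at 10 μM or serial dilutions for IC50 (0.3% DMSO). In method 1, cells were serum-starved overnight (0.5% FBS) and then given 1.5 ng/ml EGF for 15 min. In method 2, cells stayed in 10% FBS without stimulation. Lysate phospho-Erk1/2 (Thr202/Tyr204) was read by western blot.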

The subject of the next experiment is TNF-alpha. The experiment is described as follows: TNF-alpha Quantification Assay (ELISA), LPS-stimulated RAW 264.7. Type of experiment: cell-based. To be noted: Mus musculus, RAW264.7; at 10 μM; read-out: TNFα: % inh. On the technique in general: In an ELISA, binding on a coated surface is turned into a signal by an enzyme label.

Consider `COCCNC(=O)c1c(-c2ccn(C)n2)cn2nc(-c3nccn3C)nc(Nc3cc(OC)ccn3)c12` [Compound 176, N-(2-Methoxyethyl)-4-((4-methoxypyridin-2-yl)amino)-2-(1-methyl-1H-imidazol-2-yl)-6-(1-methyl-1H-pyrazol-3-yl)pyrrolo[2,1-f][1,2,4]triazine-5-carboxamide], for which, in the experiment on Erk1/2 phosphorylation, the “% inh of Erk1/2 phosphorylation in Panc-1” value (“% inh” below) is reported as “D* (85-100% activation)”. The inhibition at 10 µM in the experiment on TNF-alpha is 0%.

`Cc1c(-c2ccn(C)n2)cn2nc(-c3nccn3C)nc(Nc3ccc(-n4ccnc4C)cn3)c12` [Compound 243, 5-Methyl-N-(5-(2-methyl-1H-imidazol-1-yl)pyridin-2-yl)-2-(1-methyl-1H-imidazol-2-yl)-6-(1-methyl-1H-pyrazol-3-yl)pyrrolo[2,1-f][1,2,4]triazin-4-amine]: the “% inh” value with Erk1/2 phosphorylation is “C* (46-84% activation)”. For the same compound, in the experiment with TNF-alpha, the inhibition at 10 µM was 0%.

For `COCCNC(=O)c1c(-c2ccn(C)n2)cn2nc(-c3nccn3C)nc(N[C@H]3CC[C@H](OC)C3)c12` (racemic) [Compound 183, rac 4-(((1S,3S)-3-Methoxycyclo-pentyl)amino)-N-(2-methoxyethyl)-2-(1-methyl-1H-imidazol-2-yl)-6-(1-methyl-1H-pyrazol-3-yl)pyrrolo[2,1-f][1,2,4]triazine-5-carboxamide], the “% inh” value in the experiment with Erk1/2 phosphorylation is given as “D* (85-100% activation)”. For the same compound, the inhibition at 10 µM in the experiment with TNF-alpha lay in the range of 25 to 49%.

As to `Cc1cnc2c(c1)CCN2c1nc(-c2nccn2C)nn2cc(-c3ccn(C)n3)c(C)c12` [Compound 239, 5-Methyl-2-(1-methyl-1H-imidazol-2-yl)-6-(1-methyl-1H-pyrazol-3-yl)-4-(5-methyl-2,3-dihydro-1H-pyrrolo[2,3-b]pyridin-1-yl)pyrrolo[2,1-f][1,2,4]triazine], the “% inh” value with Erk1/2 phosphorylation is recorded as “C* (46-84% activation)”. Further, the inhibition at 10 µM with TNF-alpha was in the range of 1 to 24%.

Consider `COc1ccnc(Nc2nc(-c3nccn3C)nn3cc(-c4ccn(C)n4)c(C(=O)N4CCOCC4)c23)c1` [Compound 179, (4-((4-Methoxypyridin-2-yl)amino)-2-(1-methyl-1H-imidazol-2-yl)-6-(1-methyl-1H-pyrazol-3-yl)pyrrolo[2,1-f][1,2,4]triazin-5-yl)(morpho-lino)methanone], for which the “% inh” value in the experiment with Erk1/2 phosphorylation is listed as “D* (85-100% activation)”. Besides, the inhibition at 10 µM in the experiment on TNF-alpha was determined as 0%.

As to `COCCCNC(=O)c1c(-c2ccn(C)n2)cn2nc(-c3nccn3C)nc(N[C@H]3CC[C@H](OC)C3)c12` (racemic) [Compound 184, rac 4-(((1S,3S)-3-methoxycyclo-pentyl)amino)-N-(3-methoxypropyl)-2-(1-methyl-1H-imidazol-2-yl)-6-(1-methyl-1H-pyrazol-3-yl)pyrrolo[2,1-f][1,2,4]triazine-5-carboxamide], the “% inh” value with Erk1/2 phosphorylation is “A* (1-25% activation)”. Also, the inhibition at 10 µM in the experiment on TNF-alpha fell in the range of 25 to 49%.

For `Cc1c(-c2ccn(C)n2)cn2nc(-c3nccn3C)nc(Nc3ccc(-n4ccnc4)cn3)c12` [Compound 242, N-(5-(1H-Imidazol-1-yl)pyridin-2-yl)-5-methyl-2-(1-methyl-1H-imidazol-2-yl)-6-(1-methyl-1H-pyrazol-3-yl)pyrrolo[2,1-f][1,2,4]triazin-4-amine], the “% inh” value with Erk1/2 phosphorylation is on record as 0 (0% inhibition). Further, the inhibition at 10 µM in the experiment on TNF-alpha was determined as 0%.

`Cc1c(-c2ccn(C)n2)cn2nc(-c3nccn3C)nc(Nc3ccc(OC(F)(F)F)cn3)c12` [Compound 232, 5-Methyl-2-(1-methyl-1H-imidazol-2-yl)-6-(1-methyl-1H-pyrazol-3-yl)-N-(5-(trifluoro-methoxy)pyridin-2-yl)pyrrolo[2,1-f][1,2,4]triazin-4-amine]: the “% inh” value in the experiment with Erk1/2 phosphorylation is “B* (26-49% activation)”. Also, the inhibition at 10 µM with TNF-alpha lay within 1 to 24%.

Regarding `Cc1c(-c2ccn(C)n2)cn2nc(-c3nccn3C)nc(Nc3cc(C(C)(C)O)ccn3)c12` [Compound 240, 2-(2-((5-Methyl-2-(1-methyl-1H-imidazol-2-yl)-6-(1-methyl-1H-pyrazol-3-yl)pyrrolo[2,1-f][1,2,4]triazin-4-yl)amino)pyridin-4-yl)propan-2-ol], the “% inh” value in the experiment with Erk1/2 phosphorylation is given as “A* (1-25% activation)”. The inhibition at 10 µM in the experiment on TNF-alpha is 0%.

For `COc1ccnc(Nc2nc(-c3nccn3CCNC(=O)CCCC[C@H]3SC[C@H]4NC(=O)N[C@H]43)nn3cc(-c4ccn(C)n4)c(C)c23)c1` [Compound 216, N-(2-(2-(4-((4-methoxypyridin-2-yl)amino)-5-methyl-6-(1-methyl-1H-pyrazol-3-yl)pyrrolo[2,1-f][1,2,4]triazin-2-yl)-1H-imidazol-1-yl)ethyl)-5-((3aR,4R,6aS)-2-oxohexahydro-1H-thieno[3,4-d]imidazol-4-yl)pentanamide], in the experiment on Erk1/2 phosphorylation, the “% inh” value was “C* (46-84% activation)”. Further, the inhibition at 10 µM with TNF-alpha was in the range of 25 to 49%.

Turning to `CO[C@H]1CC[C@H](Nc2nc(-c3nccn3C)nn3cc(-c4ccn(C)n4)c(C(=O)NC4CC4)c23)C1` (racemic) [Compound 182, rac N-Cyclopropyl-4-(((1S,3S)-3-methoxycyclo-pentyl)amino)-2-(1-methyl-1H-imidazol-2-yl)-6-(1-methyl-1H-pyrazol-3-yl)pyrrolo[2,1-f][1,2,4]triazine-5-carboxamide], the “% inh” value with Erk1/2 phosphorylation is recorded as “A* (1-25% activation)”. In addition, in the experiment on TNF-alpha, the inhibition at 10 µM fell in the range of 1 to 24%.

Consider `COc1ccnc(Nc2nc(-c3nccn3C)nn3cc(-c4ccn(C)n4)c(C(=O)NC4CC4)c23)c1` [Compound 175, N-Cyclopropyl-4-((4-methoxypyridin-2-yl)amino)-2-(1-methyl-1H-imidazol-2-yl)-6-(1-methyl-1H-pyrazol-3-yl)pyrrolo[2,1-f][1,2,4]triazine-5-carboxamide], for which the “% inh” value in the experiment with Erk1/2 phosphorylation is recorded as “D* (85-100% activation)”. Moreover, the inhibition at 10 µM with TNF-alpha was found to be 0%.

As to `Cc1c(-c2ccn(C)n2)cn2nc(-c3nccn3C)nc(Nc3ccc(C(F)F)cn3)c12` [Compound 234, N-(5-(Difluoromethyl)pyridin-2-yl)-5-methyl-2-(1-methyl-1H-imidazol-2-yl)-6-(1-methyl-1H-pyrazol-3-yl)pyrrolo[2,1-f][1,2,4]triazin-4-amine], in the experiment on Erk1/2 phosphorylation, the “% inh” value is “D* (85-100% activation)”. Further, in the experiment with TNF-alpha, the inhibition at 10 µM is 1 to 24%.

Take `COc1cnc(Nc2nc(-c3nccn3C)nn3cc(-c4ccn(C)n4)c(C)c23)cc1C` [Compound 236, N-(5-Methoxy-4-methylpyridin-2-yl)-5-methyl-2-(1-methyl-1H-imidazol-2-yl)-6-(1-methyl-1H-pyrazol-3-yl)pyrrolo[2,1-f][1,2,4]triazin-4-amine]: the “% inh” value in the experiment with Erk1/2 phosphorylation is listed as “D* (85-100% activation)”. Also, in the experiment on TNF-alpha, the inhibition at 10 µM amounted to 0%.

As for `Cc1c(-c2ccn(C)n2)cn2nc(-c3nccn3C)nc(Nc3cc(OCCNC(=O)CCCC[C@H]4SC[C@H]5NC(=O)N[C@H]54)ccn3)c12` [Compound 186, N-(2-((2-((5-Methyl-2-(1-methyl-1H-imidazol-2-yl)-6-(1-methyl-1H-pyrazol-3-yl)pyrrolo[2,1-f][1,2,4]triazin-4-yl)amino)pyridin-4-yl)oxy)ethyl)-5-((3aR,4R,6aS)-2-oxohexahydro-1H-thieno[3,4-d]imidazol-4-yl)pentanamide], the “% inh” value in the experiment with Erk1/2 phosphorylation was “A* (1-25% activation)”. Besides, the inhibition at 10 µM in the experiment on TNF-alpha lay within 1 to 24%.

As to `Cc1c(-c2ccn(C)n2)cn2nc(-c3nccn3C)nc(Nc3ccc(OC(F)F)cn3)c12` [Compound 231, N-(5-(Difluorometh-oxy)pyridin-2-yl)-5-methyl-2-(1-methyl-1H-imidazol-2-yl)-6-(1-methyl-1H-pyrazol-3-yl)pyrrolo[2,1-f][1,2,4]triazin-4-amine], the “% inh” value in the experiment with Erk1/2 phosphorylation is given as “D* (85-100% activation)”. Further, the inhibition at 10 µM in the experiment on TNF-alpha turned out to be 0%.

Consider `COc1cc(Nc2nc(-c3nccn3C)nn3cc(-c4ccn(C)n4)c(C)c23)ncc1F` [Compound 237, N-(5-Fluoro-4-methoxypyridin-2-yl)-5-methyl-2-(1-methyl-1H-imidazol-2-yl)-6-(1-methyl-1H-pyrazol-3-yl)pyrrolo[2,1-f][1,2,4]triazin-4-amine], for which the “% inh” value in the experiment on Erk1/2 phosphorylation is reported as 0 (0% inhibition). Further, the inhibition at 10 µM in the experiment on TNF-alpha amounted to 0%.

On to `COc1ccnc(Nc2nc(-c3nccn3C)nn3cc(-c4ccn(C)n4)c(C(=O)N4CCCC4)c23)c1` [Compound 178, (4-((4-Methoxypyridin-2-yl)amino)-2-(1-methyl-1H-imidazol-2-yl)-6-(1-methyl-1H-pyrazol-3-yl)pyrrolo[2,1-f][1,2,4]triazin-5-yl)(pyrrolidin-1-yl)methanone], for which the “% inh” value in the experiment with Erk1/2 phosphorylation was “D* (85-100% activation)”. The inhibition at 10 µM in the experiment on TNF-alpha was found to be 0%.

For `COc1ccnc(Nc2nc(-c3nccn3C)nn3cc(-c4ccn(C)n4)c(C(=O)NCCN(C)C)c23)c1` [Compound 177, N-(2-(Dimethylamino)ethyl)-4-((4-methoxypyridin-2-yl)amino)-2-(1-methyl-1H-imidazol-2-yl)-6-(1-methyl-1H-pyrazol-3-yl)pyrrolo[2,1-f][1,2,4]triazine-5-carboxamide], in the experiment with Erk1/2 phosphorylation, the “% inh” value is listed as “D* (85-100% activation)”. Further, the inhibition at 10 µM with TNF-alpha was 0%.

In the case of `COc1cc(Nc2nc(-c3nccn3C)nn3cc(-c4cccnc4)c(-c4cccnc4)c23)ncn1` [Compound 170, N-(6-Methoxypyrimidin-4-yl)-2-(1-methyl-1H-imidazol-2-yl)-5,6-di(pyridin-3-yl)pyrrolo[2,1-f][1,2,4]triazin-4-amine], the “% inh” value in the experiment on Erk1/2 phosphorylation is on record as “A* (1-25% activation)”. In addition, the inhibition at 10 µM in the experiment with TNF-alpha stood at 0%.

Consider `Cc1c(-c2ccn(C)n2)cn2nc(-c3nccn3C)nc(Nc3ccc(C(F)(F)F)cn3)c12` [Compound 233, 5-Methyl-2-(1-methyl-1H-imidazol-2-yl)-6-(1-methyl-1H-pyrazol-3-yl)-N-(5-(trifluoromethyl)pyridin-2-yl)pyrrolo[2,1-f][1,2,4]triazin-4-amine], for which the “% inh” value in the experiment with Erk1/2 phosphorylation was “D* (85-100% activation)”. In addition, in the experiment with TNF-alpha, the inhibition at 10 µM was 1 to 24%.

(Values after patent publication US12459951B2, “Compounds that interact with RAS superfamily proteins for treatment of cancers, inflammatory diseases, rasopathies, and fibrotic disease” (SHY Therapeutics, LLC, priority 2022, dated 2025).)
